Reference: patent publication US20230148214A1, “INDAZOLES AND AZAINDAZOLES AS LRRK2 INHIBITORS” (ESCAPE Bio, Inc., priority 2020, published 2023)

What was measured:
LRRK2 WT = biological target: T1, LRRK2 WT (Homo sapiens, UniProt Q5S007); test: LRRK2 Kinase Activity Assay (LanthaScreen TR-FRET), wild type; type: biochemical; conditions: recombinant wild type LRRK2, 25 μM ATP, 400 nM LRRKtide, 60 min; class symbols
T1 construct: purchased Life Technologies PR8604B
How it was run: (§1)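 Recombinant wild-type or G2019S LRRK2 incubated with fluorescein-labeled LRRKtide (ERM-based) peptide, ATP and serially diluted compound for 60 min at room temperature.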

LRRK2 G2019S = biological target: T2, LRRK2 G2019S (Homo sapiens, UniProt Q5S007, G2019S); test: LRRK2 Kinase Activity Assay (LanthaScreen TR-FRET), G2019S; type: biochemical; conditions: recombinant G2019S-LRRK2, 25 μM ATP, 400 nM LRRKtide, 60 min; class symbols
T2 construct: purchased Life Technologies PV4881
T2 sequence (Q5S007 whole entry G2019S): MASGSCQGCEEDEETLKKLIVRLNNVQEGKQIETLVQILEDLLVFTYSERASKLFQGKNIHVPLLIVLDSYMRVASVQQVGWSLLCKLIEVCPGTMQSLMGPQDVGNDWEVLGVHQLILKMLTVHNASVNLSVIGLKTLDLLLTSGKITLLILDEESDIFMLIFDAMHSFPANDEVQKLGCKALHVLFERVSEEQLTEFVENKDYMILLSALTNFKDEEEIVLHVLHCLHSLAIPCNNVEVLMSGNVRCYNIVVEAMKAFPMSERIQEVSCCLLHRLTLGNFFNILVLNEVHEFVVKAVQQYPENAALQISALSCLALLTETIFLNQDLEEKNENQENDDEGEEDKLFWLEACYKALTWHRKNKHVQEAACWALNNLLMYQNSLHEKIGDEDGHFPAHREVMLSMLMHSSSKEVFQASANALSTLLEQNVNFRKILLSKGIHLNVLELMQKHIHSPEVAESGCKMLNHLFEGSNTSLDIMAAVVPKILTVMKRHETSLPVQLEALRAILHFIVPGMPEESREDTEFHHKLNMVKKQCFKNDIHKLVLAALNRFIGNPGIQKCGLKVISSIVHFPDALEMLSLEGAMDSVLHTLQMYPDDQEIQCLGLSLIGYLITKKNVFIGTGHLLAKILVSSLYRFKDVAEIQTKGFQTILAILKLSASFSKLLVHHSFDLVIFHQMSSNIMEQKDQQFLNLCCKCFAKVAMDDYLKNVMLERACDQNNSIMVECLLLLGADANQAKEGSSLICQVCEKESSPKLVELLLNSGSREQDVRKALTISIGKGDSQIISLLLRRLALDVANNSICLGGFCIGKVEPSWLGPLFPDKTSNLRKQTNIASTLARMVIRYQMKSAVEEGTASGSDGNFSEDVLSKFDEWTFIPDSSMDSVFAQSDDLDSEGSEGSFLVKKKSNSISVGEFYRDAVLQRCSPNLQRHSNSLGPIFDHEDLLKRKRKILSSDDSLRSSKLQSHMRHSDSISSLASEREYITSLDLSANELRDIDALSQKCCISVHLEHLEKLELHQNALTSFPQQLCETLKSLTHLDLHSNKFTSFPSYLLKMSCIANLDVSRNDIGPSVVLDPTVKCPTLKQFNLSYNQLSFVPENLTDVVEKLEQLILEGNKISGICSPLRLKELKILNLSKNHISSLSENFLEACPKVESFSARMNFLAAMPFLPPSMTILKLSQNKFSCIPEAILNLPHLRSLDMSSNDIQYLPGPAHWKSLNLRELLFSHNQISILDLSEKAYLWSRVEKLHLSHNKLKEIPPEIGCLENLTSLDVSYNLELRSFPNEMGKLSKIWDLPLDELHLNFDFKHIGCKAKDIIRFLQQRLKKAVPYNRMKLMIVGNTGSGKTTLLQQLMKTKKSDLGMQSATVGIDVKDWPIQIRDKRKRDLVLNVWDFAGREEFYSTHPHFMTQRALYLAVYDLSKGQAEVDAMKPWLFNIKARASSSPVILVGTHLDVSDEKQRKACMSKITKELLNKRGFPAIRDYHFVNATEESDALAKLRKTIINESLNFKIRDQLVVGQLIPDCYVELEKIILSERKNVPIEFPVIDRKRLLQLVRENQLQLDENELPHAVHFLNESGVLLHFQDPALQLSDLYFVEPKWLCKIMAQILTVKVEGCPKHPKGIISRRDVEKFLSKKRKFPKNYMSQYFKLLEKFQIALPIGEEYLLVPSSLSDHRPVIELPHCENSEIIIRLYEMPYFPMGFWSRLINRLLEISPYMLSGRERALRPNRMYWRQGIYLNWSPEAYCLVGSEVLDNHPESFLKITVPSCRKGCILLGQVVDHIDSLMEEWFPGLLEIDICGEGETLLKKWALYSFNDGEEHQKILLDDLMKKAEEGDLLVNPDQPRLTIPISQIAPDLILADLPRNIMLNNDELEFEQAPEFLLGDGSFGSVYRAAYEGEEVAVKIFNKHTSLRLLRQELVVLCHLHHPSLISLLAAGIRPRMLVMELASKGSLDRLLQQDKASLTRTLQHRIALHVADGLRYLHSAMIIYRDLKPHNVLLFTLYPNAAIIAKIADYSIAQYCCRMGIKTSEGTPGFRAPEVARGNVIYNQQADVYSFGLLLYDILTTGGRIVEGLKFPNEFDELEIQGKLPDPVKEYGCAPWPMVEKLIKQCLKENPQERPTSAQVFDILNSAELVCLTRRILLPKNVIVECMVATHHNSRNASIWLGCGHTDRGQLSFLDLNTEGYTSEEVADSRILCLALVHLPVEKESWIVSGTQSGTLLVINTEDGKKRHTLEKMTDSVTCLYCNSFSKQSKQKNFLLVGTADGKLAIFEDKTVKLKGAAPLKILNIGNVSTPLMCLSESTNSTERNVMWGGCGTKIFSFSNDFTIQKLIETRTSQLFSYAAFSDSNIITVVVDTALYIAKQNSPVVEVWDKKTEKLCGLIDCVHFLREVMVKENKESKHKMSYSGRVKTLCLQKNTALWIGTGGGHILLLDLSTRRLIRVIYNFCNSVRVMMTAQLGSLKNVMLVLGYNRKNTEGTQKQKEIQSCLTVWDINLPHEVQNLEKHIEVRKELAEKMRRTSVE
How it was run: as §1

T1 sequence (Q5S007 whole entry): as the sequence (Q5S007 whole entry G2019S) above, with S2019G counted along it

SMILES | IC50 (LRRK2 WT) [nM] | IC50 (LRRK2 G2019S) [nM]
Cc1nc2c(c(C)c1C#N)CC[C@@H]2Nc1ccc2[nH]nc(-c3cnco3)c2c1 (single isomer, unassigned) [Example 170, enantiomer 1, 2,4-Dimethyl-7-[[3-(1,3-oxazol-5-yl)-1H-indazol-5-yl]amino]-6,7-dihydro-5H-cyclopenta[b]pyridine-3-carbonitrile] | < 100 | < 100
Cc1nc2c(c(C)c1C#N)CC[C@@H]2Nc1ccc2[nH]nc(-c3cnco3)c2c1 (single isomer, unassigned) [Example 170, enantiomer 2, 2,4-Dimethyl-7-[[3-(1,3-oxazol-5-yl)-1H-indazol-5-yl]amino]-6,7-dihydro-5H-cyclopenta[b]pyridine-3-carbonitrile] | 100 to 1000 | < 100
N#Cc1cc2c(nc1Cl)[C@@H](Oc1ccc3[nH]nc(-c4cnco4)c3c1)CC2 (single isomer, unassigned) [Example 171, enantiomer 1, 2-Chloro-7-[[3-(1,3-oxazol-5-yl)-1H-indazol-5-yl]oxy]-6,7-dihydro-5H-cyclopenta[b]pyridine-3-carbonitrile] | < 100 | < 100
CC1(C)Cc2cc(C#N)cnc2[C@H]1Nc1ccc2[nH]nc(-c3cnco3)c2c1 (single isomer, unassigned) [Example 172, enantiomer 1, 6,6-Dimethyl-7-[[3-(1,3-oxazol-5-yl)-1H-indazol-5-yl]amino]-5,7-dihydrocyclopenta[b]pyridine-3-carbonitrile] | 100 to 1000 | 100 to 1000
CC1(C)Cc2cc(C#N)cnc2[C@H]1Nc1ccc2[nH]nc(-c3cnco3)c2c1 (single isomer, unassigned) [Example 172, enantiomer 2, 6,6-Dimethyl-7-[[3-(1,3-oxazol-5-yl)-1H-indazol-5-yl]amino]-5,7-dihydrocyclopenta[b]pyridine-3-carbonitrile] | < 100 | < 100
C[C@H]1CCc2cc(C#N)ccc2[C@H]1Nc1ccc2[nH]nc(-c3cnco3)c2c1 (single isomer, unassigned) [Example 173, enantiomer 1, cis-6-Methyl-5-((3-(oxazol-5-yl)-1H-indazol-5-yl)amino)-5,6,7,8-tetrahydronaphthalene-2-carbonitrile] | < 100 | < 100
C[C@H]1CCc2cc(C#N)ccc2[C@H]1Nc1ccc2[nH]nc(-c3cnco3)c2c1 (single isomer, unassigned) [Example 173, enantiomer 2, cis-6-Methyl-5-((3-(oxazol-5-yl)-1H-indazol-5-yl)amino)-5,6,7,8-tetrahydronaphthalene-2-carbonitrile] | 100 to 1000 | < 100
C[C@@H]1CCc2cc(C#N)ccc2[C@H]1Nc1ccc2[nH]nc(-c3cnco3)c2c1 (single isomer, unassigned) [Example 174, enantiomer 1, trans-6-Methyl-5-((3-(oxazol-5-yl)-1H-indazol-5-yl)amino)-5,6,7,8-tetrahydronaphthalene-2-carbonitrile] | < 100 | < 100
C[C@@H]1CCc2cc(C#N)ccc2[C@H]1Nc1ccc2[nH]nc(-c3cnco3)c2c1 (single isomer, unassigned) [Example 174, enantiomer 2, trans-6-Methyl-5-((3-(oxazol-5-yl)-1H-indazol-5-yl)amino)-5,6,7,8-tetrahydronaphthalene-2-carbonitrile] | 100 to 1000 | < 100
N#Cc1ccc2c(c1)CCC2Nc1ccc2[nH]nc(-c3ccoc3)c2c1 (centres unmarked) [Example 10, 1-((3-(Furan-3-yl)-1H-indazol-5-yl)amino)-2,3-dihydro-1H-indene-5-carbonitrile] | 100 to 1000 | < 100
N#Cc1ccc2c(c1)CC[C@@H]2Oc1ccc2[nH]nc(I)c2c1 [Example 13, 1-((3-Iodo-1H-indazol-5-yl)oxy)-2,3-dihydro-1H-indene-5-carbonitrile] | 100 to 1000 | < 100
N#Cc1cnc2c(c1)CC(F)(F)C2Nc1ccc2[nH]nc(-c3cnco3)c2c1 (centres unmarked) [Example 34, 6,6-Difluoro-7-((3-(oxazol-5-yl)-1H-indazol-5-yl)amino)-6,7-dihydro-5H-cyclopenta[b]pyridine-3-carbonitrile] | 100 to 1000 | < 100
N#Cc1ccc2c(c1)CCC[C@@H]2Nc1ccc2[nH]nc(-c3ccc4ncsc4c3)c2c1 [Example 59, 5-((3-(Benzo[d]thiazol-6-yl)-1H-indazol-5-yl)amino)-5,6,7,8-tetrahydronaphthalene-2-carbonitrile] | < 100 | < 100
